From ChEMBL document CHEMBL5154661, “Novel 2-phenyl-3-(Pyridin-2-yl) thiazolidin-4-one derivatives as potent inhibitors for proliferation of osteosarcoma cells in vitro and in vivo” (Eur J Med Chem, 2022)
Converted amounts (≈) assume the structure as drawn.

Legend:
SJSA-1 = assay: Antiproliferative activity against human SJSA-1 assessed as cell growth inhibition at 1 uM measured after 72 hrs by CCK-8 assay relative to control; format: functional
MG-63 = assay: Antiproliferative activity against human MG-63 cells assessed as cell growth inhibition at 1 uM measured after 72 hrs by CCK-8 assay relative to control; format: functional
HOS-TE85 [1] = assay: Antiproliferative activity against human MNNG/HOS cells assessed as cell growth inhibition at 1 uM measured after 72 hrs by CCK-8 assay relative to control; format: functional
HOS-TE85 [2] = assay: Antiproliferative activity against human MNNG/HOS cells assessed as cell growth inhibition measured after 72 hrs by CCK-8 assay; format: functional, cell-based; conditions: HOS-TE85, 72 h
143B = assay: Antiproliferative activity against human 143B cells assessed as cell growth inhibition at 1 uM measured after 72 hrs by CCK-8 assay relative to control; format: functional
HOS = assay: Antiproliferative activity against human HOS cells assessed as cell growth inhibition at 1 uM measured after 72 hrs by CCK-8 assay relative to control; format: functional
U2OS = assay: Antiproliferative activity against human U2OS cells assessed as cell growth inhibition at 1 uM measured after 72 hrs by CCK-8 assay relative to control; format: functional
[3] = Microsomal stability in mouse liver microsomes assessed as intrinsic clearance at 0.1 uM incubated for 10 mins in presence of NADPH by LC-MS/MS analysis; format: ADME, Microsome
[4] = Kinetic solubility of compound at pH 7.4 by turbidimetry method; format: physicochemical; conditions: buffer, read-out: Kinetic_solubility
[5] = Microsomal stability in rat liver microsomes assessed as intrinsic clearance at 0.1 uM incubated for 10 mins in presence of NADPH by LC-MS/MS analysis; format: ADME, Microsome
[6] = Kinetic solubility of compound at pH 6.8 by turbidimetry method; format: physicochemical; conditions: buffer, read-out: Kinetic_solubility
[7] = Microsomal stability in human liver microsomes assessed as intrinsic clearance at 0.1 uM incubated for 10 mins in presence of NADPH by LC-MS/MS analysis; format: ADME, Microsome

COc1cc(F)ccc1N1C(=O)CSC1c1cccc(C(=O)NCCCCc2ccccc2)c1 (stereo unspecified)
inhibition at 1 µM (SJSA-1): 77% | inhibition at 1 µM (MG-63): 92% | inhibition at 1 µM (HOS-TE85 [1]): 94% | IC50 (HOS-TE85 [2]): 71.1 nM | inhibition at 1 µM (143B): 63% | inhibition at 1 µM (HOS): 81% | inhibition at 1 µM (U2OS): 34%

O=C(NCCCCc1ccccc1)c1cc(F)cc(C2SCC(=O)N2c2ccccn2)c1 (stereo unspecified)
IC50 (HOS-TE85 [2]): 14.2 nM

O=C(NCCCCc1ccccc1)c1cccc(C2SCC(=O)N2c2nccs2)c1 (stereo unspecified)
IC50 (HOS-TE85 [2]): > 1000 nM

O=C(NCCCCc1ccccc1)c1cccc(C2SCC(=O)N2c2ccccc2)c1 (stereo unspecified)
inhibition at 1 µM (SJSA-1): 73% | inhibition at 1 µM (MG-63): 89% | inhibition at 1 µM (HOS-TE85 [1]): 96% | IC50 (HOS-TE85 [2]): 15.9 nM | inhibition at 1 µM (143B): 60% | inhibition at 1 µM (HOS): 55% | inhibition at 1 µM (U2OS): 68%

O=C(NCCCCc1ccccc1)c1cccc(C2SCC(=O)N2c2ccc(C3CC3)cc2)c1 (stereo unspecified)
intrinsic clearance (CLint) [3]: 2962 mL/min/g | solubility kinetic [4]: 2 µM (≈ 0.941 µg/mL) | IC50 (HOS-TE85 [2]): 217 nM | intrinsic clearance (CLint) [5]: 2275 mL/min/g | solubility kinetic [6]: 2 µM (≈ 0.941 µg/mL) | intrinsic clearance (CLint) [7]: 811 mL/min/g

CC1SC(c2cccc(C(=O)NCCCCc3ccc(Cl)cc3)c2)N(c2cccc(C3CC3)c2)C1=O (stereo unspecified)
IC50 (HOS-TE85 [2]): 932 nM

COc1ccccc1N1C(=O)CSC1c1cc(C(=O)NCCCCc2ccccc2)cc(C2CC2)c1 (stereo unspecified)
IC50 (HOS-TE85 [2]): 23.5 nM

O=C(NCCCCn1cccn1)c1cccc(C2SCC(=O)N2c2cccc(C3CC3)c2)c1 (stereo unspecified)
IC50 (HOS-TE85 [2]): 298 nM

O=C(NCCCCc1ccccc1)c1cccc(C2OCC(=O)N2c2cccc(F)c2)c1 (stereo unspecified)
inhibition at 1 µM (SJSA-1): 32% | inhibition at 1 µM (MG-63): 66% | inhibition at 1 µM (HOS-TE85 [1]): 87% | IC50 (HOS-TE85 [2]): 320 nM | inhibition at 1 µM (143B): 0% | inhibition at 1 µM (HOS): 29% | inhibition at 1 µM (U2OS): 25%

O=C(NCCCCc1ccccc1)c1cccc(C2SCC(=O)N2c2ccc(N3CCOCC3)cc2)c1 (stereo unspecified)
IC50 (HOS-TE85 [2]): > 1000 nM

COc1ccccc1N1C(=O)CSC1C(=O)NCCCCc1ccccc1 (stereo unspecified)
inhibition at 1 µM (SJSA-1): 14% | inhibition at 1 µM (MG-63): 60% | inhibition at 1 µM (HOS-TE85 [1]): 0% | IC50 (HOS-TE85 [2]): > 1000 nM | inhibition at 1 µM (143B): 4% | inhibition at 1 µM (HOS): 0% | inhibition at 1 µM (U2OS): 6%

CC(C)(C)c1conc1N1C(=O)CSC1c1cccc(C(=O)NCCCCc2ccccc2)c1 (stereo unspecified)
IC50 (HOS-TE85 [2]): > 1000 nM

Cc1ccnc(N2C(=O)CS[C@H]2c2cccc(C(=O)NCCCCn3cccn3)c2)c1
IC50 (HOS-TE85 [2]): > 10000 nM

COc1ccc(N2C(=O)CSC2c2cccc(C(=O)NCCCCc3ccccc3)c2)c(OC)c1 (stereo unspecified)
inhibition at 1 µM (SJSA-1): 85% | inhibition at 1 µM (MG-63): 56% | inhibition at 1 µM (HOS-TE85 [1]): 58% | IC50 (HOS-TE85 [2]): 90.4 nM | inhibition at 1 µM (143B): 53% | inhibition at 1 µM (HOS): 82% | inhibition at 1 µM (U2OS): 37%

O=C(NCCCCc1ccccc1)c1cccc(C2SCC(=O)N2c2cnccn2)c1 (stereo unspecified)
IC50 (HOS-TE85 [2]): > 1000 nM

COc1ccccc1N1C(=O)CSC1c1cccc(C(=O)NCCCCn2ccc3ccccc32)c1 (stereo unspecified)
IC50 (HOS-TE85 [2]): 286 nM

COc1ccccc1N1C(=O)CSC1c1cc(F)cc(C(=O)O)c1 (stereo unspecified)
inhibition at 1 µM (SJSA-1): 0% | inhibition at 1 µM (MG-63): 0% | inhibition at 1 µM (HOS-TE85 [1]): 0% | IC50 (HOS-TE85 [2]): > 1000 nM | inhibition at 1 µM (143B): 0% | inhibition at 1 µM (HOS): 8% | inhibition at 1 µM (U2OS): 15%

O=C(NCCCCn1cccn1)c1cccc(C2SCC(=O)N2c2ccccn2)c1 (stereo unspecified)
intrinsic clearance (CLint) [3]: 304 mL/min/g | solubility kinetic [4]: 50 µM (≈ 21.1 µg/mL) | IC50 (HOS-TE85 [2]): 60.3 nM | intrinsic clearance (CLint) [5]: 506 mL/min/g | solubility kinetic [6]: 50 µM (≈ 21.1 µg/mL) | intrinsic clearance (CLint) [7]: 82.1 mL/min/g

O=C(NCCCCc1ccccc1)c1cccc(C2SCC(=O)N2c2cccc(C3CC3)c2)c1 (stereo unspecified)
intrinsic clearance (CLint) [3]: 2943 mL/min/g | solubility kinetic [4]: 10 µM (≈ 4.71 µg/mL) | IC50 (HOS-TE85 [2]): 299 nM | intrinsic clearance (CLint) [5]: 3543 mL/min/g | solubility kinetic [6]: 10 µM (≈ 4.71 µg/mL) | intrinsic clearance (CLint) [7]: 2069 mL/min/g

COc1ccccc1N1C(=O)CSC1c1cccc(C(=O)NCCCCc2ccc(Cl)cc2)c1 (stereo unspecified)
IC50 (HOS-TE85 [2]): 78.6 nM

O=C(NCCCCn1cccn1)c1cccc(C2SCC(=O)N2c2cc(F)ccn2)c1 (stereo unspecified)
intrinsic clearance (CLint) [3]: 397 mL/min/g | solubility kinetic [4]: 50 µM (≈ 22 µg/mL) | IC50 (HOS-TE85 [2]): 33.2 nM | intrinsic clearance (CLint) [5]: 1198 mL/min/g | solubility kinetic [6]: 50 µM (≈ 22 µg/mL) | intrinsic clearance (CLint) [7]: 116.4 mL/min/g

COc1ccccc1N1C(=O)CSC1c1cc(F)cc(C(=O)NCCCCc2ccccc2)c1 (stereo unspecified)
intrinsic clearance (CLint) [3]: 1434 mL/min/g | solubility kinetic [4]: 10 µM (≈ 4.79 µg/mL) | IC50 (HOS-TE85 [2]): 40.9 nM | intrinsic clearance (CLint) [5]: 3259 mL/min/g | solubility kinetic [6]: 10 µM (≈ 4.79 µg/mL) | intrinsic clearance (CLint) [7]: 2076 mL/min/g

C#Cc1cc(C(=O)NCCCCc2ccccc2)cc(C2SCC(=O)N2c2ccccc2OC)c1 (stereo unspecified)
intrinsic clearance (CLint) [3]: 2490 mL/min/g | solubility kinetic [4]: 10 µM (≈ 4.85 µg/mL) | IC50 (HOS-TE85 [2]): 40.8 nM | intrinsic clearance (CLint) [5]: 2204 mL/min/g | solubility kinetic [6]: 10 µM (≈ 4.85 µg/mL) | intrinsic clearance (CLint) [7]: 1727 mL/min/g

COc1ccccc1N1C(=O)CSC1c1cc(C)cc(C(=O)NCCCCc2ccccc2)c1 (stereo unspecified)
IC50 (HOS-TE85 [2]): 16.2 nM

O=C(NCCCCn1cccn1)c1cccc(C2SCC(=O)N2c2cccnc2)c1 (stereo unspecified)
IC50 (HOS-TE85 [2]): > 1000 nM
